According to ChEMBL document CHEMBL5113421, “Development of novel conformationally restricted selective Clk1/4 inhibitors through creating an intramolecular hydrogen bond involving an imide linker” (Eur J Med Chem, 2022):

Columns and labels:
[1] = target: T1, Dual specificity protein kinase CLK1 (Homo sapiens, UniProt P49759); test: Inhibition of human recombinant GST-tagged Clk1 (129 to 484 residues) expressed in Escherichia coli expression system at 100 nM using GRSRSRSRSRSRSRS peptide as substrate incubated for 15 mins in presence of ATP by phosphoimager analysis relative to control
Target sequence in this assay (P49759 whole entry, looked up, the tested form may be a part): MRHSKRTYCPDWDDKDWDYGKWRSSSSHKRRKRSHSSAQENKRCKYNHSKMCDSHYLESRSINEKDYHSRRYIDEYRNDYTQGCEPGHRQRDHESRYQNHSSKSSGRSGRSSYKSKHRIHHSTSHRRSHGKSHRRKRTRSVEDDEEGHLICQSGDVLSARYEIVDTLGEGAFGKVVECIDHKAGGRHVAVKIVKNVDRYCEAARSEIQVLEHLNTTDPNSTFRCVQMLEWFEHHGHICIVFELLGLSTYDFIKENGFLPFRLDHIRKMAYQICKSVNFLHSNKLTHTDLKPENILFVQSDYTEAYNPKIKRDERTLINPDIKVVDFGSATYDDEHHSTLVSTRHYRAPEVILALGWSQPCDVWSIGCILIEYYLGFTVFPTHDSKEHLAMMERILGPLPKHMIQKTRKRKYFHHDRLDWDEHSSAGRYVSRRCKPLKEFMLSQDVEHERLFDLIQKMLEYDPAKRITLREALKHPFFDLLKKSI

[2] = target: T1, Dual specificity protein kinase CLK1; test: Inhibition of human recombinant GST-tagged Clk1 (129 to 484 residues) expressed in Escherichia coli expression system using GRSRSRSRSRSRSRS peptide as substrate incubated for 15 mins in presence of ATP by phosphoimager analysis
Target sequence in this assay (P49759 whole entry, the tested form may be a part): as the sequence (P49759 whole entry, looked up, the tested form may be a part) above

[3] = target: T2, Dual specificity protein kinase CLK2 (Homo sapiens, UniProt P49760); test: Inhibition of human recombinant GST-tagged Clk2 expressed in Baculovirus expression system using GRSRSRSRSRSRSRS peptide as substrate incubated for 15 mins in presence of ATP by phosphoimager analysis
Target sequence in this assay (P49760 whole entry): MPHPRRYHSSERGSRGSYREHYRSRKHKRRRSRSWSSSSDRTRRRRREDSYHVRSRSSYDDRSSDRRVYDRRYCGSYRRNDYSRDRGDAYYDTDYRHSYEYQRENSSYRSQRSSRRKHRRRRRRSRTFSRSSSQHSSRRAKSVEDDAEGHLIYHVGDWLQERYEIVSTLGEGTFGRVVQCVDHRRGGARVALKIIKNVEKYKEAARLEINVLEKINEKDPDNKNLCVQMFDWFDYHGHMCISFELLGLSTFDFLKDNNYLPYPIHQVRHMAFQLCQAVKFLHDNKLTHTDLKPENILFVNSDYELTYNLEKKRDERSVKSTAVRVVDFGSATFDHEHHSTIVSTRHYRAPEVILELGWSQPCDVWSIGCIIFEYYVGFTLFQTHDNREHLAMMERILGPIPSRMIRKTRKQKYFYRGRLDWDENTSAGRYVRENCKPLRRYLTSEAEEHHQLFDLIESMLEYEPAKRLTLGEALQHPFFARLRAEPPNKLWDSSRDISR

[4] = target: T2, Dual specificity protein kinase CLK2; test: Inhibition of human recombinant GST-tagged Clk2 expressed in Baculovirus expression system at 0.25 uM using GRSRSRSRSRSRSRS peptide as substrate incubated for 15 mins in presence of ATP by phosphoimager analysis relative to control
Target sequence in this assay (P49760 whole entry, looked up): as the sequence (P49760 whole entry) above

[5] = organism: Homo sapiens; test: Selectivity index, ratio of IC50 for human Clk2 to IC50 for human Clk1 by phosphoimager analysis
[6] = organism: Homo sapiens; test: Selectivity ratio of IC50 for human Clk2 to IC50 for human Clk1
[7] = organism: Homo sapiens; test: Selectivity ratio of IC50 for human DYRK1A to IC50 for human Clk1
[8] = test system: T-24; test: Antiproliferative activity against human T24 cells assessed as cell growth inhibition measured after 3 days by MTT assay; format: functional; details: T-24, 72 h, time 3 day
[9] = organism: Homo sapiens; test: Selectivity ratio of IC50 for human Clk2 to IC50 for human Clk1 by ADP-Glo assay

SMILES | inhibition [1] [%] | further results
COc1ccc2sc(C(=O)NC(=O)c3cc(F)ccc3OC)cc2c1 | 83.3 | IC50 [2]: 18.4 nM; IC50 [3]: 250 nM; inhibition [4]: 52.6%; Ratio IC50 [5]: 13.6
COc1ccc2sc(C(=O)NC(=O)c3cccc(OC)c3OC)cc2c1 | 27.7 | 
COc1ccc2sc(C(=O)NC(=O)c3cc(F)ccc3F)cc2c1 | 65.6 | IC50 [2]: 70 nM
COc1ccc2sc(C(=O)NC(=O)c3c(OC)cccc3OC)cc2c1 | 12.2 | 
COc1ccc2sc(C(=O)NC(=O)c3cccc(Cl)c3OC)cc2c1 | 2.2 | 
COc1ccc2sc(C(=O)NC(=O)c3ccc(Cl)cc3OC)cc2c1 | 49.5 | 
COc1ccc2sc(C(=O)N(C)Cc3cc(F)cc(F)c3)cc2c1 |  | Ratio IC50 [6]: 9.8; Ratio IC50 [7]: 28
COc1ccc2sc(C(=O)NC(=O)c3cccc(F)n3)cc2c1 | 67.1 | IC50 [2]: 20.9 nM; IC50 [3]: 250 nM; inhibition [4]: 53.8%; Ratio IC50 [5]: 12; GI50 [8]: > 15000 nM
CC(C)(C)c1ccc(C(=O)Nc2cn3cc(-c4cn[nH]c4)ccc3n2)cn1 |  | Ratio IC50 [9]: 2.2
COc1ccc2sc(C(=O)NC(=O)c3cc(C)on3)cc2c1 | 7.3 | 
COc1ccc(F)c(C(=O)NC(=O)c2cc3cc(OC)ccc3s2)c1 | 7.8 | 
CCOc1ccccc1C(=O)NC(=O)c1cc2cc(OC)ccc2s1 | 63.3 | IC50 [2]: 79.4 nM; GI50 [8]: < 100 nM
COc1ccc2sc(C(=O)NC(=O)c3cccc4c3OC(F)(F)O4)cc2c1 | 43.1 | 
COc1ccc2sc(C(=O)N(C)C(=O)c3ccccc3OC)cc2c1 | 15.7 | 
COc1cccc(C(=O)NC(=O)c2cc3cc(OC)ccc3s2)c1 | 36.5 | 
COc1ccc2sc(C(=O)NC(=O)c3cc(C)ccc3OC)cc2c1 | 42.7 | 
COc1ccc2sc(C(=O)NC(=O)c3cccc4c3OCCO4)cc2c1 | 9.2 | 
COc1ccc2sc(C(=O)NC(=O)c3cc(C(F)(F)F)ccc3OC)cc2c1 | 9.6 | 
COc1ccc2sc(C(=O)NC(=O)c3ccccc3C)cc2c1 | 6.5 | 
COc1ccc2sc(C(=O)NC(=O)c3ccc(OC)c(F)c3)cc2c1 | 5.9 | 
COc1ccc(OC)c(C(=O)NC(=O)c2cc3cc(OC)ccc3s2)c1 | 30.8 | 
